Experimental findings from patent US10722582B2, “Targeted antimicrobial photodynamic therapy” (Purdue Research Foundation, priority 2018, dated 2020) are described below.

Assay type in all cases: cell-based, Staphylococcus aureus
Assay [1] deals with S. aureus (PCI 1203). The experiment in a line: Competitive hemin uptake assay (fluorescence microscopy). Conditions: for Fluorescence after 15 min / Fluorescence after 15 min exposure + 1 equiv. hemin: Fe-deficient conditions (TS media containing 3 mM bipy), no background subtraction; for effect of hemin competition on uptake: one equivalent of hemin, 15 minutes of co-incubation. As for the experimental part: To elucidate the relevant structural features for the specific uptake of Ga-PpIX by S. aureus, we performed a competitive uptake assay using one equivalent of hemin against Ga-PpIX, PpIX, and eleven other fluorescent PpIX derivatives, with evaluation by fluorescence microscopy after 15 minutes of co-incubation (FIG. 5 and Table 4). These studies were partly guided by insights taken from the X-ray structures of hemin and Ga-PpIX within the binding pocket of IsdH: (i) coordination of the metal center by an apical tyrosine residue; (ii) the flanking of vinyl groups on pyrrole rings A and B against nearby aromatic residues; and (iii) the extension and presumed hydration of the propionyl groups (rings C and D) outside of the binding pocket.
Bacteria were cultured and assayed in iron-deficient media unless otherwise noted. A stock solution of Ga-PpIX (14.6 μM) was prepared by dispersing 5 mg in 1 mL of 10% DMSO in PBS for 10 minutes in an ultrasonic cleaning bath protected from light, followed by filtration and 10× dilution in PBS just prior to use. Bacterial suspensions (0.5 mL) were treated with freshly prepared solutions of PpIX derivatives for specified periods (5-15 min), then harvested by centrifugation at 5.2 g for 5 minutes, redispersed twice in 0.5 mL deionized water, and centrifuged a third time. A 10-μL aliquot of concentrated bacteria was deposited onto a glass slide and dried in air for 20 min, then imaged by fluorescence microscopy as described above. For details on fluorescence image processing and quantitative analysis, see Supporting Information.
S. aureus (PCI 1203; ATCC 10537) was first cultured in standard TS broth, then in media containing 3 mM bipyridine. Bacteria were pelleted and washed with PBS buffer three times, then resuspended to a final concentration of 10^8 cfu/mL. Stock solutions of hemin and PpIX derivatives 1-13 were prepared at initial concentrations of 292 μM; hemin and fluorescent PpIX solutions were mixed in a 1:1 ratio (0.5 mL), then added to 0.5 mL of bacterial suspension and allowed to sit for 15 min at room temperature. For control studies, hemin or fluorophore solutions were substituted with PBS to maintain constant […]. Bacteria were harvested and washed as described above, then evaluated by fluorescence microscopy for relative uptake efficiency.
Darkfield and fluorescent images were acquired in succession, with the former used to map regions of interest (ROIs) by tracing the outlines of bacteria (FIG. 8). Three images were acquired for each sample; in each case, the tracing map was overlaid onto the fluorescence image to calculate pixel intensities within each ROI, using the mean pixel intensity for quantitative analysis. Bacteria were also imaged without treatment with PpIX analogs, most of which produced values close to that of background except for Salmonella enterica, which served as the upper limit of autofluorescence (cf. FIG. 4). Data collection and image analyses were performed by the same user to ensure consistency for comparative analysis.

The test system of assay [2] is S. aureus. As to the kind of experiment: Antibacterial activity assay with LED light. How it is done: (§1) Antibacterial activity assay general protocol: Used LED light to test conditions. Bacteria were grown in TS broth, followed by 3 mM bipyridine in TS broth until log phase. Bacteria were then diluted with PBS, to OD 0.1 (˜10^) and then to ˜10^7 cfu/mL. 100 uL of bacteria were placed in 96 well plates with the appropriate GaPpIX concentration. 2× serial dilutions were then done to obtain other GaPpIX concentrations. Each concentration was done in triplicate. Bacteria were left incubating and irradiating for different amount of times at different light powers or left in the dark. 10× Serial dilutions were done and bacteria were plated for colony counting using the drop-plate technique. Colonies were counted after 24 hours. As reported herein, a 3-log reduction equals measurable antimicrobial action; a 6-log reduction equals total eradication.
(§2) Stock solution preparation (AVM-3-36, 10 nm AgNP). Prepared a solution of (AVM-2-273) GaPpIX-apoHb 1 mg/mL in MP H2O, deaerated. Took 10 mL of 10 nm AgNPs, centrifuged at 900 G for 5 min (Beckman, 3100 RPM), took supernantant and added 200 uL of GaPpIXHb. After overnight, centrifuged 3000 RPM g for 5 minutes (Beckman). Took supernantant and centrifuged using a 100 K CentriCon tube at 4000 RPM for 5 minutes, 3×. Added 15 mM borate buffer to NPs. Based on calibration curve, the stock solution is 1.94 ug/mL AgNP, so stock: 79 μg/mL AgNP, 10.37 μg/mL GaPpIXHb, 0.446 μg/mL GaPpIX (refer to AVM-2-293A and AVM-3-3).
(§3) The following antibacterial activity measurements were assayed in the presence of AgNP.

The next assay deals with MRSA386. The experiment in a line: Antibacterial activity assay with LED light. Conditions: in the presence of 10 nm AgNP. As for the experimental part:
as §1, §2, §3

In the next assay the test system is MRSA387. As to the kind of experiment: Antibacterial activity assay with LED light. Conditions: in the presence of 10 nm AgNP. As for the experimental part: as §1, §2, §3
For the next assay, the system named is MRSA385. The experiment in a line: Antibacterial activity assay with LED light. Conditions: in the presence of 10 nm AgNP. As for the experimental part: as §1, §2, §3
A further assay deals with MRSA383. The experiment in a line: Antibacterial activity assay with LED light. To be noted: in the presence of 10 nm AgNP. How it is done:
as §1, §2, §3

In assay [3] the test system is S. aureus. The experiment in a line: aPDI with 405-nm LED bar, summary over strains. To be noted: Ga-hemoglobin on 10-nm AgNP, 405-nm light, fluence about 1 J/cm^2. How it is done: as §1
Assay [4] relates to S. aureus (PCI 1203; ATCC 10537). The experiment in a line: aPDI with CFL irradiation (406 nm), planktonic bacteria, drop-plate colony count. Conditions: for potency relative to dark toxicity (0 min exposure): 3-log reduction. As for the experimental part:
The aPDI properties of Ga-PpIX were compared against PpIX, whose photosensitizer activities are well known and whose optical profile is similar to that of Ga-PpIX (FIG. 2).
All bacterial strains were cultured at 37° C. in an aerobic atmosphere unless otherwise noted. […] Bacterial counts were estimated in units of cfu/mL by plating serial dilutions onto agar plates, followed by incubation for 16 hours at 37° C. […] Further details and variations on iron-deficient culture conditions are provided in Supporting Information.
Antimicrobial assays were performed on planktonic bacteria at 10^7 cfu/mL with variable exposure times to CFL irradiation, followed by plating on agar and incubation at 37° C. […] The irradiated bacteria were plated onto agar in serial tenfold dilutions (10^7-10^1 cfu/mL); controls included one set of wells without photosensitizer, and one set of wells with photosensitizer but without 15 min irradiation, prior to plating (dark toxicity). Bacterial counts were determined by the drop-plate method using TS-agar plates, and reported in colony-forming units per milliliter (cfu/mL).
The irradiation source consisted of a 20-W compact fluorescent lightbulb (CFL; Sunlite SL20/BLB) housed in an ellipsoidal reflector dome.

The subject of assay [5] is S. aureus (PCI 1203). As to the kind of experiment: Competitive hemin uptake assay (fluorescence microscopy). Conditions: standard conditions (TS media); no background subtraction.

For `COC(=O)CCc1c(C)c2cc3nc(cc4nc(cc5[nH]c(cc1[nH]2)c(CCC(=O)OC)c5C)C(C(C)O)=C4C)C(C(C)O)=C3C` (stereo not drawn) [HP diMe (8), HP dimethyl diester], in the assay with S. aureus (PCI 1203) [1], the “Fluorescence after 15 min” value is listed as 29.05 a.u and the “Fluorescence after 15 min exposure + 1 equiv. hemin” value was determined as 26.9 a.u.

For the compound “Ga(III)-PpIX dimethyl diester [Ga-PpIX diMe (6)]”, in the assay with S. aureus (PCI 1203) [1], the “Fluorescence after 15 min” value was 60.55 a.u and the “Fluorescence after 15 min exposure + 1 equiv. hemin” value was determined as 33.95 a.u.

With `C=CC1=C(C)c2cc3[n-]c(cc4[n-]c(cc5nc(cc1n2)C(C)=C5C=C)c(C)c4CCC(=O)O)c(CCC(=O)O)c3C.[Cl-].[Fe+3]` [hemin, Fe(III)-protoporphyrin IX, reference compound], in the assay on S. aureus (PCI 1203) [1], the “Fluorescence after 15 min” value is on record as 2.55 a.u.

“GaPpIX/10 nm HbAgNP: GaPpIX added to apohemoglobin (Ga-hemoglobin) adsorbed onto 10-nm Ag nanoparticles”: the “concentration for 3-log reduction” value in the assay with S. aureus [2] (in the presence of 10 nm AgNP) is recorded as 22 nM; in the assay with MRSA386, 79 nM; in the assay with MRSA387 it was 43 nM; in the assay on MRSA385, 27 nM; in the assay on MRSA383, 27 nM. Moreover, the “concentration for 6-log reduction” value in the assay with S. aureus [2] (in the presence of 10 nm AgNP) was determined as 27 nM; in the assay with MRSA386 it was 158 nM; in the assay with MRSA387 it was 218 nM; in the assay with MRSA385 it was 109 nM; in the assay on MRSA383 it was 79 nM. Further, the “GaPpIX effective concentration (aPDI)” value in the assay with S. aureus [3] was in the range of 0.022 to 0.080 µM.

In the case of “3,8-Diacetyldeuteroporphyrin dimethyl diester [DiAcDP diMe (12)]”, in the assay on S. aureus (PCI 1203) [1], the “Fluorescence after 15 min” value is listed as 20.9 a.u, the “Fluorescence after 15 min exposure + 1 equiv. hemin” value is reported as 18.05 a.u and the “effect of hemin competition on uptake” value was “less affected by hemin”.

Turning to `C=CC1=C(C)c2cc3[nH]c(cc4[nH]c(cc5nc(cc1n2)C(C)=C5C=C)c(C)c4CCC(=O)OC)c(CCC(=O)OC)c3C` [PpIX diMe (7), PpIX dimethyl diester], in the assay with S. aureus (PCI 1203) [1], the “Fluorescence after 15 min” value turned out to be 15.75 a.u and the “Fluorescence after 15 min exposure + 1 equiv. hemin” value came to 12.75 a.u.

Turning to “di-O-succinyl-HP dimethyl diester [DiSuccHP diMe (10)]”, in the assay on S. aureus (PCI 1203) [1], the “Fluorescence after 15 min” value is on record as 19.37 a.u, the “Fluorescence after 15 min exposure + 1 equiv. hemin” value amounted to 16.9 a.u and the “effect of hemin competition on uptake” value was “less affected by hemin”.

For `C[n+]1ccc(-c2c3nc(c(-c4cc[n+](C)cc4)c4ccc([nH]4)c(-c4cc[n+](C)cc4)c4nc(c(-c5cc[n+](C)cc5)c5ccc2[nH]5)C=C4)C=C3)cc1` [TMPyP, reference compound], in the assay with S. aureus [2], the “concentration for 3-log reduction (measurable antimicrobial action)” value is listed as 235 nM. Also, in the assay with S. aureus [2], the “concentration for 6-log reduction (total eradication)” value is recorded as 940 nM. Also, the “Antimicrobial activity (minimum 3-log CFU reduction)” value was below 7.4 μM in assay [4] (0 min (dark), no irradiation (dark toxicity)); below 7.4 μM in [4] (0 min (dark), no irradiation (dark toxicity), listed as TMPy); 0.92 μM in [4] (5 min CFL 406 nm, 12.4 mW/cm^2 (3.7 J/cm^2)); 0.23 μM in assay [4] (15 min CFL 406 nm, 12.4 mW/cm^2 (11.2 J/cm^2)). For the same compound, the “potency relative to dark toxicity (0 min exposure)” value in assay [4] (5 min CFL) is reported as below 8x; in assay [4] (15 min CFL) it was below 32x.

Turning to `CC1=C(CCC(=O)O)c2cc3[nH]c(cc4nc(cc5[nH]c(cc1n2)c(C)c5C(C)O)C(C)=C4C(C)O)c(C)c3CCC(=O)O` (stereo not drawn) [HP (4), hematoporphyrin], in the assay with S. aureus (PCI 1203) [1], the “Fluorescence after 15 min” value worked out at 14.38 a.u and the “Fluorescence after 15 min exposure + 1 equiv. hemin” value is given as 9.58 a.u.

For the compound “Verteporfin [Verteporfin (13), reference compound]”, in the assay on S. aureus (PCI 1203) [1], the “Fluorescence after 15 min” value came out at 30.75 a.u, the “Fluorescence after 15 min exposure + 1 equiv. hemin” value is 28 a.u and the “effect of hemin competition on uptake” value is “less affected by hemin”. Besides, in the assay with S. aureus (PCI 1203) [5], the “Fluorescence after 15 min” value amounted to 25.82 a.u and the “Fluorescence after 15 min exposure + 1 equiv. hemin” value is 23.72 a.u.

As for “Ga(III) diacetyldeuteroporphyrin (diAcDP) dimethyl diester [Ga-DiAcDP diMe (11)]”, in the assay with S. aureus (PCI 1203) [1], the “Fluorescence after 15 min” value came to 12.27 a.u, the “Fluorescence after 15 min exposure + 1 equiv. hemin” value is on record as 11.85 a.u and the “effect of hemin competition on uptake” value is “less affected by hemin”.

For the compound `C=CC1=C(C)c2cc3[n-]c(cc4nc(cc5[n-]c(cc1n2)c(C)c5C=C)C(C)=C4CCC(=O)O)c(CCC(=O)O)c3C.[Zn+2]` [Zn-PpIX (3), Zn-PpIX], in the assay on S. aureus (PCI 1203) [1], the “Fluorescence after 15 min” value was 31.45 a.u, the “Fluorescence after 15 min exposure + 1 equiv. hemin” value came out at 16.87 a.u and the “effect of hemin competition on uptake” value is on record as “moderately affected by hemin”.

Turning to Zn-HP [Zn-HP (5)], in the assay on S. aureus (PCI 1203) [1], the “Fluorescence after 15 min” value came out at 29.2 a.u, the “Fluorescence after 15 min exposure + 1 equiv. hemin” value is given as 14.52 a.u and the “effect of hemin competition on uptake” value was “moderately affected by hemin”.

Consider “di-O-acetyl-HP dimethyl diester [DiAcHP diMe (9)]”, for which, in the assay on S. aureus (PCI 1203) [1], the “Fluorescence after 15 min” value stood at 21.6 a.u, the “Fluorescence after 15 min exposure + 1 equiv. hemin” value was 18.95 a.u and the “effect of hemin competition on uptake” value is “less affected by hemin”.
